Test results published in ChEMBL document CHEMBL1201862, “PubChem BioAssay data set” (2004).
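Values below derive from 48-hour exposures of cells grown in 96-well plates, with endpoints linearly interpolated between the two concentrations bracketing the appropriate inhibition level. GI50 = concentration required for 50% inhibition of growth.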 Calls of active or inactive are those of the source. Rule as the data show it: active = GI50 up to about 1.1 µM and inactive = higher.

Key:
Assay in all cases: NCI anticancer screen, dose series, 48 h
DU-145 = tested on: DU-145
Hs-578T = tested on: Hs-578T
MDA-MB-231 = tested on: MDA-MB-231
MDA-MB-435 = tested on: MDA-MB-435
NCI/ADR-RES = tested on: NCI/ADR-RES
PC-3 = tested on: PC-3
T47D = tested on: T47D
HOP-18 = tested on: HOP-18
786-0 = tested on: 786-0

Measured: GI50

Cc1cn(C2CC(n3cc(Cn4ccc(=O)[nH]c4=O)nn3)C(CO)O2)c(=O)[nH]c1=O (configuration not stated)
inactive: DU-145 > 100 µM | Hs-578T > 100 µM | MDA-MB-231 > 100 µM | MDA-MB-435 > 100 µM | NCI/ADR-RES > 100 µM | PC-3 > 100 µM | T47D > 100 µM

CN1CCC(C(=O)NNc2ccccc2)CC1
inactive: HOP-18 > 61.5 µM

C#CCCCCC#Cc1ccccc1C(=O)OC
inactive: HOP-18 > 100 µM

Cc1c2ccccc2c(CO)c2cc(F)c3ccccc3c12
inactive: HOP-18 28.5 µM

COc1cc(OC)cc(N2CCC(c3c(N)nc(N)nc3Cl)CC2)c1
inactive: 786-0 > 100 µM

Cc1cc2c(cc1Cl)Sc1n[nH]c(=O)n1S2(=O)=O
inactive: 786-0 > 100 µM | DU-145 > 100 µM | Hs-578T > 100 µM | MDA-MB-231 > 100 µM | MDA-MB-435 > 100 µM | NCI/ADR-RES > 100 µM | PC-3 > 100 µM

CC1(C)C(=O)OC(n2cc(F)c(=O)[nH]c2=O)C1=O (configuration not stated)
inactive: 786-0 > 100 µM | HOP-18 > 100 µM

NC(=O)c1ncn2c1CNC(=O)C2
inactive: DU-145 > 100 µM | Hs-578T > 100 µM | MDA-MB-231 > 100 µM | MDA-MB-435 > 100 µM | NCI/ADR-RES > 100 µM | PC-3 > 100 µM | T47D > 100 µM

Cc1cc2c(=O)c3ccccc3[nH]c2c(C(N)=O)c1C
inactive: 786-0 > 100 µM | HOP-18 > 100 µM

COc1cc2c(cc1O)CCN(C)[C@H]2Cc1ccc(Oc2c(O)c(OC)cc3c2C[C@H]2c4c(c(OC)c(OC)c(OC)c4-3)CCN2C)cc1 [THALIFABERIDINE]
inactive: 786-0 4.53 µM | DU-145 6.34 µM | Hs-578T 5.3 µM | MDA-MB-231 3.04 µM | MDA-MB-435 3.51 µM | NCI/ADR-RES 5.56 µM | PC-3 4.31 µM | T47D 6.05 µM
